Patent publication US5710174A, “Factor XIIIA inhibitor” (Zymo Genetics, Inc., priority 1995, dated 1998)

Assays:
FXIIIa = target: T1, FXIIIa (Homo sapiens, UniProt P00488); assay: Primary FXIIIa screening assay (cross-linking of biotinylated fibrinogen and immobilized fibronectin); format: biochemical
T1 sequence (P00488 39-732 limits assumed): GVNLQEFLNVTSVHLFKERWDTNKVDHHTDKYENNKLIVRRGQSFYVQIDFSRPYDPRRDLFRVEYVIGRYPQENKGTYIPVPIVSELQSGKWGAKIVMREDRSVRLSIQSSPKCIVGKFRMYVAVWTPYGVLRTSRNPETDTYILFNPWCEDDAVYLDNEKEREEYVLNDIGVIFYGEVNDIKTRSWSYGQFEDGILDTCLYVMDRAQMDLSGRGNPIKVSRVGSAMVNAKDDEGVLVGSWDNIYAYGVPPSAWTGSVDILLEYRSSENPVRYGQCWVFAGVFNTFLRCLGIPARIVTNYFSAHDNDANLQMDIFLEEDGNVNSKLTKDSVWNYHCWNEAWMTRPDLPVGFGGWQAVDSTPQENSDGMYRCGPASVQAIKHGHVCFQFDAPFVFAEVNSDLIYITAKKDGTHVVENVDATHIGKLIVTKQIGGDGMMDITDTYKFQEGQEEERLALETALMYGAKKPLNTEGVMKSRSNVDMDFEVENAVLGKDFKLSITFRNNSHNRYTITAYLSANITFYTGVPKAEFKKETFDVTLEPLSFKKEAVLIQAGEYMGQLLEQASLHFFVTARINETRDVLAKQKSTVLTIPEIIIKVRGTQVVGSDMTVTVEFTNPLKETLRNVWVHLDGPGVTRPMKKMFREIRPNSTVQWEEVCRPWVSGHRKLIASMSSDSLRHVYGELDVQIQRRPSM
Description: The primary FXIIIa screening assay used a 96-well high throughput assay format. This assay assesses test sample inhibition of FXIIIa catalyzed cross-linking of biotinylated fibrinogen and immobilized fibronectin.
Test samples (possibly containing FXIIIa inhibitors) were added to 96-well plates coated with fibronectin, followed by the addition of FXIIIa, as described in the primary FXIIIa screening assay, below. Biotinylated fibrinogen was added to the wells, and streptavidin-alkaline phosphatase was used to detect biotinylated fibrinogen that had been cross-linked to fibronectin.
Purified fibronectin was diluted to 1 μg/ml in 0.1M Na2 CO3, pH 9.7, and added to control and test assay wells of 96-well plates at 100 μl/well. All wells were incubated overnight at 4° C.
After incubation, the plate wells were washed twice with 200 μl/well of wash buffer per wash to remove all fibronectin not bound to the wells. The wash buffer contained 0.135M NaCl, 2.7 mM KCl, 25 mM Tris at about pH 7.4, and 0.1% Tween 20® (Sigma Chemical Co., St. Louis, Mo.; polyoxyethylenesorbitan monolaurate). The plate wells were then blocked with 200 μl/well blocking buffer and incubated for 1-2 h at 37° C. The blocking buffer contained 0.135M NaCl, 2.7 mM KCl, 25 mM Tris at about pH 7.4, 0.1% Tween 20®, and 0.5% BSA (bovine serum albumin, Sigma fraction V; Sigma). After incubation, the plates wells were again washed with 200 μl/well of wash buffer to remove excess blocking buffer.
Briefly, fibrinogen was dialyzed against 0.1M NaHCO3, pH 8.5 (coupling buffer) at a concentration of 1 mg/ml. BNHS was dissolved in dimethylformamide at a concentration of 1.7 mg/ml, and added to fibrinogen in coupling buffer at a ratio of 30 μl BNHS to 1 ml fibrinogen. The mixture was incubated with rocking for 4 h at room temperature, dialyzed against PBS, and stored in aliquots at -80° C.
Biotinylated fibrinogen (40 μl of 20 μg/ml solution) was added to each plate well. Except in control wells (which received 10 μl of 10% DMSO alone), 10 μl of each of the 11,198 crude extracts in 10% DMSO were added to duplicate wells after the addition of biotinylated fibrinogen, resulting in a 1% final assay concentration of DMSO.
FXIIIa (recombinant human FXIIIa2 (ZymoGenetics), as described in European Patent No. 0 268 772, granted Apr. 26, 1995, and incorporated herein by reference) was diluted to 100 μg/ml in a solution of 50 mM Tris, 5 mM CaCl2 at pH 7.4 containing 1 unit/ml thrombin (bovine; Enzyme Research Labs) and incubated for 20 min at 37° C. FXIIIa then was diluted to 1 μg/ml in a cross-linking buffer consisting of the blocking buffer described above plus 20 mM CaCl2 and 75 ng/ml D-phenylalanyl-L-prolyl-L-arginine chloromethyl ketone (PPACK; Calbiochem, La Jolla, Calif.). Fifty microliters of FXIIIa in cross-linking buffer was added to each test and control well. All wells then were incubated for about 10 min at 37° C.
After incubation, the wells were washed twice with 200 μl/well of wash buffer to remove all biotinylated fibrinogen that was not cross-linked to fibronectin.

[1] = target: T2, tissue transglutaminase (tTG) (Cavia cutleri, UniProt P08587); assay: tTG screening assay; format: biochemical
T2 construct: purchased Sigma
T2 sequence (P08587 1-690): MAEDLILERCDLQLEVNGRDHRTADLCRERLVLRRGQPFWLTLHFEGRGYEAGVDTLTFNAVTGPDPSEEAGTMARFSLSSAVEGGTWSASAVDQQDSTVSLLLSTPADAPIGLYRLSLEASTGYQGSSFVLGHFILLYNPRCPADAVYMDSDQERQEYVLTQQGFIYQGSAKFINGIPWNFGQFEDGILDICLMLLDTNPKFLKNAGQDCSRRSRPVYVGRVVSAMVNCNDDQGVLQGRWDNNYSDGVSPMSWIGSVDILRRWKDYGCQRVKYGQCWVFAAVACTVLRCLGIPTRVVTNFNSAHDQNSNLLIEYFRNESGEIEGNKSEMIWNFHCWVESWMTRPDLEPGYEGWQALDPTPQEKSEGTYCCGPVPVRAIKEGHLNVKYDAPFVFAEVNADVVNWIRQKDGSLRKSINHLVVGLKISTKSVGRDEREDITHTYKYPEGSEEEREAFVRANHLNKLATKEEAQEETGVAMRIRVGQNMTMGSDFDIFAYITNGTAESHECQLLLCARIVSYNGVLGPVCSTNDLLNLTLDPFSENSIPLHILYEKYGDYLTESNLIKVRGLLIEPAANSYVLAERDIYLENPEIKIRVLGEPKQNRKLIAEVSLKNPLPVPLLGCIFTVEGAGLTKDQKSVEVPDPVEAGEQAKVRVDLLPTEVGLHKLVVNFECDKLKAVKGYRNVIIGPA
Text: Because FXIII is a member of the tissue transglutaminase (tTG) family, all potential FXIIIa inhibitors identified in the primary FXIIIa screening assay were further screened for tTG (non-FXIII-specific) inhibitory activity. The tTG screening assay was identical to the primary FXIIIa screening assay, except that tTG (Sigma) was used instead of FXIIIa and no thrombin or PPACK was used.
The determination of IC50 values was done the same as in the primary FXIIIa screening assay, except that purified compounds were used at varying concentrations (instead of crude culture extracts). The IC50 values allow one to make comparisons of one compound to another.

plasma clots = assay: Plasma clot lysis assay; parameters: species or system human; conditions: 100 μM
Description: For this assay, 50 μl of one of a series of concentrations of iodoacetic acid, cerulenin, or ZG-1400a was added to 0.5 ml human citrated plasma (prepared from one blood donor) in 5 ml polypropylene tubes. The ZG-1400a and iodoacetic acid were individually prepared in 10% DMSO and tested using half-log dilutions, starting at a final assay concentration of 100 μM and diluting to 10 μM. Cerulenin was prepared in 10% ethanol and tested using half-log dilutions, starting at a final assay concentration of 100 μM and diluting to 10 μM.
Approximately 10^6 cpm ^125 I-fibrinogen (Amersham), 50 mM CaCl2 (20 mM above citrate concentration) and 5 units thrombin (bovine, Enzyme Research Labs) were added to each test and control tube. The tubes were incubated while rocking for 20 h at 37° C. Plasma clots formed in the tubes were washed three times with about 1 ml phosphate buffered saline (PBS). The plasma clots in each tube were counted after the PBS washes.
Approximately 2 ml of 50 mM Tris, pH 7.4, containing 50 mM NaCl, 28 μg plasminogen (human, Calbiochem), and 280 ng urokinase (human, Calbiochem) were added to the clots in test and control tubes. At 1, 2, and 4 h intervals, 25 μl aliquots of the samples were removed from each tube and counted.
The values shown in Table 3 represent the amount of lysis after plasma clots were formed for about 20 h and exposed to plasminogen and urokinase for about 4 h.

papain = target: T3, papain (Carica papaya, UniProt P00784); assay: Papain inhibition assay; format: biochemical
T3 construct: purchased Boehringer Mannheim
T3 sequence (P00784 134-345): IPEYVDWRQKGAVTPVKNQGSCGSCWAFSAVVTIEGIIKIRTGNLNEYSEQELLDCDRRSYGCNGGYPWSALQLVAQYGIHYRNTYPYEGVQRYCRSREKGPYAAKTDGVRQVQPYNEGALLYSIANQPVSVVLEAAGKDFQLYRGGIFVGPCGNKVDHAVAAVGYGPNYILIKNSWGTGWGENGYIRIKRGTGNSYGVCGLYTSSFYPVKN
Description: For the papain inhibition assay, a buffer containing 0.1M NaPO4 and 2.5 mM EDTA at about pH 7.0 was used. An Azocoll™ solution was prepared by adding 5 mg Azocoll™ (Calbiochem; an insoluble, powdered cowhide to which a bright red dye is attached (azo-dye-bound collagen)) to the buffer while stirring. The Azocoll was prewarmed to about 37° C. 10 μl of 0.1M L-cysteine, 10 μl of 50 μg/ml papain (Boehringer Mannheim), 0.5 ml of Azocoll solution, and 50 μl of one of a series of concentrations of ZG-1400a, iodoacetamide, iodoacetic acid, cerulenin, or 50 μl of the DMSO or ethanol negative controls were added to duplicate 13×75 mm glass tubes. The ZG-1400a, iodoacetamide, and iodoacetic acid were individually prepared in 10% DMSO and tested using half-log dilutions, starting at a final assay concentration of 100 μM and diluting to 10 nM. Cerulenin was prepared in 10% ethanol and tested using half-log dilutions, starting at a final assay concentration of 100 μM and diluting to 10 nM. A negative (no inhibition) control for ZG-1400a, iodoacetamide and iodoacetic acid was 50 μl of 10% DMSO to give a final assay concentration of 1% DMSO in each control tube. A negative control for cerulenin was 50 μl of 10% ethanol to give a final assay concentration of 1% ethanol in each control tube. The test and control tubes then were incubated for 30 min at 37° C. in an agitated water bath.
After incubation, all of the tubes were centrifuged at 2000 RPM for 5 min. The supernatant was removed and its absorbance was read at 520 nm on a Beckman DU640 spectrophotometer to determine the amount of papain inhibition.

clot formation = conditions: background; cited from earlier work

Compound	IC50 (FXIIIa) [µM]	IC50 [1] [µM]	susceptibility of plasma clots to lysis by plasminogen and urokinase (plasma clots)	% Plasma Clot lysis (plasma clots; clots formed about 20 h, plasminogen and urokinase about 4 h) [%]	IC50 (papain) [µM]	Papain inhibition (result in words, IC50 table) (papain; 100 μM to 10 nM, 30 min at 37° C.)	internal bleeding (clot formation)	toxicity (clot formation)
O=C(O)CI [Iodoacetic Acid, iodoacetic acid]	350	32	significantly more susceptible to lysis	23	0.7	did cause inhibition		
O=c1oc2ccccc2c(O)c1Cc1c(O)c2ccccc2oc1=O [dicoumarin]							more prone to internal bleeding	associated with toxicity
